Data set [1] deals with NTUB1 cells (human bladder cancer cell line). Briefly: MTT cytotoxicity assay against NTUB1 cells. In kind it is cell-based. As to conditions: for IC50 / % of viability at the highest concentration: NTUB1 cells; for IC50: MTT, mean±SD (n=5); for cytotoxic activity against NTUB1 cells, in words: comparison with the parent compound, from Table 1; for % of viability at the highest concentration: given when 50% inhibition not reached at the highest concentration (30 μM). The protocol: In the present embodiment, cell culture and MTT assay is used for cell viability/proliferation. NTUB1, a human bladder cancer cell line, is established from a high-grade bladder cancer. […] The cells are cultured at 37° C. in a humidified atmosphere containing 5% CO2. […] Briefly, the cells are plated at a density of 1800 cells/well in 96-well plates and incubated at 37° C. overnight before drug exposure. Cells are then cultured in the presence of graded concentrations of the test compound with or without various concentrations of cisplatin (Pharmacia & Upjohn, Milan, Italy) at 37° C. for 72 h. At the end of the culture period, 50 μL of MTT (2 mg/mL in PBS) is added to each well and allowed to react for 3 h. Following centrifugation of plates at 1000 g for 10 min, media are removed and 150 μL DMSO are added to each well. The proportions of surviving cells are determined by absorbance spectrometry at 540 nm using […]) microplate reader. The cell viability is expressed as a percentage to the viable cells of control culture condition. The IC50s of each group are calculated by the […] analysis and presented as mean±standard deviation (SD). […] In Table 1, data are presented as mean±SD (n=5). […] The control cells are treated with culture medium containing 0.1% DMSO. Cisplatin is used as a positive control.
For orientation: Formazan colour is commonly taken as a measure of viable cells.

In data set [2] the test system is NTUB1 cells. Briefly: Intracellular ROS by DCFH-DA flow cytometry in NTUB1 cells. It counts as cell-based, human. On the procedure: As to the quantitative analysis of intracellular ROS, the flow cytometry analysis is also adopted. Cells are plated and treated as above-mentioned conditions. Ten-micromolar dichlorofluorescein diacetate (DCFH-DA; Molecular Probes, Eugene, Oreg.) is added to the treated cells 30 min prior harvest. The cells are collected by trypsinization and washed with PBS. The green fluorescence of intracellular DCF (2′,7′-dichlorofluorescein) is then analyzed immediately by FACScan flow cytometer with a 525-nm band pass filter (Becton Dickinson).

The subject of data set [3] is NTUB1 cells. Briefly: Cell cycle progression by FACS in propidium iodide-stained NTUB1 cells. In kind it is cell-based, human. The protocol:
These cells are harvested by trypsinization, washed with 1×PBS, and fixed in ice-cold MeOH at −20° C. After overnight incubation, the cells are washed with PBS and incubated with 50 μg/mL propidium iodide (Sigma, Co) and 50 μg/mL RNase A (Sigma, Co) in PBS at room temperature for 30 min. The fractions of cells in each phase of cell cycle are analyzed using FACScan flow cytometer and Cell Quest software (Becton Dickinson).
(A flow cytometer gives signals particle by particle.)

A further data set concerns accumulation of NO2−. Briefly: Experiment A: accumulation of NO2− (Griess reaction). In kind it is cell-based, rat. As to conditions: for percentage of inhibition at 30 μM, A NO2−: given when 50% inhibition not reached; for IC50: inhibition of accumulation of NO2−. On the procedure: This example illustrates the anti-inflammatory activities of compounds 5, 7-11, 20 and 21. The anti-inflammatory activities of compounds 5, 7-11, 20 and 21 are studied in vitro for their inhibitory effects on chemical mediators released from neutrophils, mast cells or macrophages of rat.
Please refer to Table 2, which illustrates the inhibitory effects of compounds 5, 7-11, 20 and 21 on the accumulation of NO2^− (Experiment A), superoxide anion formation (n mol/10^6 cells/30 min) from rat neutrophils stimulated with PMA (Experiment B), and the release of β-glucuronidase from rat peritoneal mast cells stimulated with compound 48/80 (Experiment C). In Table 2, when 50% inhibition could not be reached at the highest concentration, the percentage of inhibition at 30 μM is given.
In the Experiment A, Nitric oxide (NO) in the cell medium is determined by the Griess reaction, and N-(3-aminomethyl)benzylamide (1400 W) is used as a positive control.
For orientation: The Griess reaction detects nitrite, a stable product of nitric oxide.

For data set [4], the system named is rat neutrophils stimulated with PMA. Briefly: Experiment B: superoxide anion formation from rat neutrophils stimulated with PMA. It counts as cell-based. The settings on record: PMA (3 nM). On the procedure: This example illustrates the anti-inflammatory activities of compounds 5, 7-11, 20 and 21. The anti-inflammatory activities of compounds 5, 7-11, 20 and 21 are studied in vitro for their inhibitory effects on chemical mediators released from neutrophils, mast cells or macrophages of rat. […] In Table 2, when 50% inhibition could not be reached at the highest concentration, the percentage of inhibition at 30 μM is given. In the Experiment B, superoxide anion generation is measured in terms of superoxide dismutase-inhibitable cytochrome c reduction. Neutrophils isolated from the peripheral blood of the rats are washed and suspended in Hanks' balanced salt solution (HBSS). Neutrophil suspension is preincubated with DMSO or drugs, and then superoxide dismutase (SOD) or HBSS is added into the blank and test wells, respectively. The final volume of DMSO in the reaction mixture is ≦0.5%. After addition of cytochrome c, reaction is initiated by challenge with PMA (3 nM). Thirty minutes later, the reaction is terminated by centrifugation and the absorbance changes of supernatant are monitored at 550 nm in a microplate reader. The superoxide anion generation is measured in terms of superoxide dismutase-inhibitable cytochrome c reduction. Trifluoperazine is used as a positive control for the Experiment B.

Another data set deals with PC3 cells. Briefly: MTT cytotoxicity assay against PC3 cells. It counts as cell-based, human. As to conditions: 72 h. From the text:
(§1) The data shown in FIGS. 4(A) to 4(C) represent mean±SD (n=3) for one experiment performed in triplicate. The symbols, “*” represents p<0.05, “**” represents p<0.01, and “***” represents p<0.001, compared to the control value, respectively.

The subject of a further data set is A549 cells. Nature of the data set: MTT cytotoxicity assay against A549 cells. It counts as cell-based, human. The settings on record: 72 h.
Description: as §1

Setting [5] is: 50 μM, compared across the three cell lines.

One may read the IC50 as the point on the concentration scale where inhibition reaches its midpoint. `CC1CCC2(C(=O)O)CCC3(C)C(=CCC4C5(C)CCC(=O)C(C)(C)C5CCC43C)C2C1C` (centres unmarked) [Compound 18]: the midpoint of inhibition in data set [1] (72 h), the IC50, lay at 21.4 ± 15.5 µM. Further, the “cytotoxic activity against NTUB1 cells, in words” value (“cytotoxic activity” below) in data set [1] is recorded as “increases cytotoxicities”.
In the case of `C[C@H]1[C@H](C)CC[C@]2(C(=O)O)CC[C@]3(C)C(=CC[C@@H]4[C@@]5(C)CC[C@H](O)C(C)(C)[C@@H]5CC[C@]43C)[C@H]12` [Compound 1, ursolic acid], the IC50 in data set [1] (Homo sapiens, 72 h) was 29.4 ± 1.9 µM.
In data set [1] (72 h), `N.N.[Cl][Pt][Cl]` [cisplatin, reference compound] gave an IC50 of 3.27 ± 0.1 µM. In addition, the “intracellular ROS” value is “significant increase in intracellular ROS” with NTUB1 cells [2] (10 μM, 24 h, effect inhibited by NAC) and “significant increase in intracellular ROS” with NTUB1 cells [2] (10 μM, 48 h, effect not inhibited by NAC). Further, the “effect on cell cycle progression” value with NTUB1 cells [3] (10 μM, 48 h) is on record as “S phase arrest”; in the data set with NTUB1 cells [3] (10 and 20 μM, 24 h), “dose dependent accumulation of cells in the G1 phase with a concomitant increase in the population of sub-G1 phase”.
`C[C@H]1[C@H](C)CC[C@]2(C(=O)OCCO)CC[C@]3(C)C(=CC[C@@H]4[C@@]5(C)CC[C@H](O)C(C)(C)[C@@H]5CC[C@]43C)[C@H]12` [Compound 10, 2′-Hydroxyethyl 3β-hydroxyurs-12-en-28-oate] showed an IC50 in data set [1] (72 h) of 19.5 µM. In addition, the “cytotoxic activity” value in data set [1] is on record as “attenuate the cytotoxicity”. Further, the “percentage of inhibition at 30 μM, A NO2−” value (“percentage of inhibition” below) in the data set on accumulation of NO2− is 33.1 ± 7.2%.
In turn, `COC(=O)[C@]12CC[C@@H](C)[C@H](C)[C@H]1C1=CC[C@@H]3[C@@]4(C)CC[C@H](O)C(C)(C)[C@@H]4CC[C@@]3(C)[C@]1(C)CC2` [Compound 2] gave an IC50 in data set [1] (72 h) of 37.1 µM. For the same compound, the “cytotoxic activity” value in data set [1] is reported as “decreases the cytotoxic activity”.
As to `C[C@H]1[C@H](C)CC[C@]2(C(=O)O)CC[C@]3(C)C(=CC[C@@H]4[C@@]5(C)CCC(=O)OC(C)(C)[C@@H]5CC[C@]43C)[C@H]12` [Compound 20, 4-Hydroxy-3,4-seco-ursan-12-en-28-oic acid 3,4 lactone], the IC50 in data set [1] (72 h) was over 30 µM. In data set [1], the “% of viability at the highest concentration” value (from here on “% of viability”) was determined as 63.91% and the “cytotoxic activity” value is on record as “weakens cytotoxic activities”. In addition, in the data set on accumulation of NO2−, the “percentage of inhibition” value is 41.0 ± 9.6%.
`CCCCCCOC(=O)[C@]12CC[C@@H](C)[C@H](C)[C@H]1C1=CC[C@@H]3[C@@]4(C)CC[C@H](O)C(C)(C)[C@@H]4CC[C@@]3(C)[C@]1(C)CC2` [Compound 8, Hexyl 3β-hydroxyurs-12-en-28-oate]: the IC50 is 26.2 ± 2.51 µM in data set [1] (72 h) and 11.5 ± 0.9 µM in data set [4].
In data set [4] (Neutrophil), `CN1CCN(CCCN2c3ccccc3Sc3ccc(C(F)(F)F)cc32)CC1` [trifluoperazine, reference compound] registered an IC50 of 7.3 ± 0.6 µM.
As for `CC(C)=CCOC(=O)[C@]12CC[C@@H](C)[C@H](C)[C@H]1C1=CC[C@@H]3[C@@]4(C)CC[C@H](O)C(C)(C)[C@@H]4CC[C@@]3(C)[C@]1(C)CC2` [Compound 9, 3′-Methyl-2′-butenyl 3β-hydroxyurs-12-en-28-oate], the IC50 in data set [1] (72 h) turned out to be 10.9 ± 2.01 µM; in data set [4] it was 6.1 ± 1.9 µM. Further, the “percentage of inhibition” value in the data set with accumulation of NO2− is 45.2 ± 5.9%.
The compound `C[C@H]1[C@H](C)CC[C@]2(C(=O)O)CC[C@]3(C)C(=CC[C@@H]4[C@@](C)(CCC(=O)O)[C@H](C(C)(C)O)CC[C@]43C)[C@H]12` [Compound 22, 3,4-seco-Ursan-4-hydroxy-12-en-3,28-dioic acid] registered an IC50 in data set [1] (72 h) of over 30 µM. Further, in data set [1], the “% of viability” value amounted to 56.04% and the “cytotoxic activity” value is “weakens cytotoxic activities”.
With “N-(3-aminomethyl)benzylamide [1400 W, reference compound]”, in the data set on accumulation of NO2−, the IC50 stood at 5 ± 1.5 µM.
In the case of `CC(C)OC(=O)[C@]12CC[C@@H](C)[C@H](C)[C@H]1C1=CC[C@@H]3[C@@]4(C)CC[C@H](O)C(C)(C)[C@@H]4CC[C@@]3(C)[C@]1(C)CC2` [Compound 5, Isopropyl 3β-hydroxyurs-12-en-28-oate], in data set [1] (50 μM, 72 h, compared across the three cell lines), the “cytotoxic effect at 50 μM, NTUB1 cells” value is given as “same cytotoxic effect”. Also, the midpoint of inhibition in data set [1] (72 h), the IC50, lay at 7.97 ± 0.48 µM. The “cytotoxic effect at 50 μM, PC3 cells” value with PC3 cells (setting [5]) is recorded as “same cytotoxic effect”. Further, the “cytotoxic effect against PC3 cells compared with NTUB1 cells” value in the data set on PC3 cells (MTT, FIG. 4) is on record as “do not exhibit stronger cytotoxic effects”. For the same compound, in the data set on A549 cells (setting [5]), the “cytotoxic effect at 50 μM, A549 cells” value is recorded as “same cytotoxic effect”. The “cytotoxic effect against A549 cells compared with NTUB1 cells” value in the data set on A549 cells (MTT, FIG. 4) was “do not exhibit stronger cytotoxic effects”. Moreover, the “percentage of inhibition” value with accumulation of NO2− amounted to 45.3 ± 7.0%. The “intracellular ROS” value with NTUB1 cells [2] (40 μM, 24 h, effect inhibited by NAC) is on record as “significant increase in intracellular ROS”; in the data set with NTUB1 cells [2] (20 and 40 μM, 48 h, effect not inhibited by NAC), “significant increase in intracellular ROS”. The “effect on cell cycle progression” value in the data set on NTUB1 cells [3] (20-40 μM, 48 h) is reported as “arrests G2/M phase before accumulation of cells in sub-G1 phase”; in the data set with NTUB1 cells [3] (20 and 40 μM (20-40 μM), 24 h), “induces G1 phase arrest in a dose-dependent manner”. Further, in the data set with NTUB1 cells [3] (20 and 40 μM, 24 h), the apoptotic cell death entry was “increase in the apoptotic cell death”.
Regarding `CCCCCOC(=O)[C@]12CC[C@@H](C)[C@H](C)[C@H]1C1=CC[C@@H]3[C@@]4(C)CC[C@H](O)C(C)(C)[C@@H]4CC[C@@]3(C)[C@]1(C)CC2` [Compound 7, Pentyl 3β-hydroxyurs-12-en-28-oate], the IC50 in data set [1] (72 h) is 27.8 ± 1.63 µM; in data set [4] it was 10.8 ± 2.2 µM. In addition, in the data set with accumulation of NO2−, the “percentage of inhibition” value came to 29.8 ± 3.3%.
Regarding `COC(=O)C12CCC(C)C(C)C1C1=CCC3C4(C)CCC(=O)C(C)(C)C4CCC3(C)C1(C)CC2` (centres unmarked) [Compound 19], half-maximal inhibition in data set [1] (72 h) (IC50) was put at 29.6 ± 4.65 µM.
Consider `CCOC(=O)C12CCC(C)C(C)C1C1=CCC3C4(C)CCC(O)C(C)(C)C4CCC3(C)C1(C)CC2` (centres unmarked) [Compound 3], for which the IC50 in data set [1] (72 h) amounted to 13.5 µM.
As for `C[C@H]1[C@H](C)CC[C@]2(C(=O)OCC(=O)OC(C)(C)C)CC[C@]3(C)C(=CC[C@@H]4[C@@]5(C)CC[C@H](O)C(C)(C)[C@@H]5CC[C@]43C)[C@H]12` [Compound 11, Tert-Butoxycarbonylmethyl 3β-hydroxyurs-12-en-28-oate], the IC50 was over 30 µM in data set [1] (72 h) and 21.7 ± 6.5 µM in the data set on accumulation of NO2−. Moreover, the “% of viability” value in data set [1] was determined as 64.85%.

(Values after patent publication US8729055B2, “Ursolic acid derivative and pharmaceutical composition thereof” (Kaohsiung Medical University, priority 2010, dated 2014).)
